US9988407B2, “Prodrugs of prostate specific membrane antigen (PSMA) inhibitor” (THE JOHNS HOPKINS UNIVERSITY, priority 2014, dated 2018)

Tests used:
[1] = Metabolic stability in dog liver microsomes; format: in vitro ADME; conditions: 10 μM, 37° C.
Procedure: (§1) For metabolic stability, plasma (mouse, dog, monkey and human) and liver microsomes (mouse, dog, monkey and human) were used. For stability, prodrugs (10 μM) were spiked in each matrix and incubated in an orbital shaker at 37° C. At predetermined times (0, 30 and 60 min), 100 μL aliquots of the mixture in triplicate were removed and the reaction quenched by addition of three times the volume of ice cold acetonitrile spiked with the internal standard (losartan 5 μM). The samples were vortexed for 30 s and centrifuged 12000 g for 10 min. 50 μL supernatant diluted with 50 μL water was transferred to a 250 μL polypropylene vial sealed with a Teflon cap. Prodrug disappearance was monitored over time using a liquid chromatography and tandem mass spectrometry (LC/MS/MS) method as described below.
(§2) For LC/MS/MS, prodrugs were separated with Thermo Scientific Accela UPLC system coupled to Accela open autosampler on an Agilent C18 (100×2.1 mm id) UPLC column. The autosampler was temperature controlled and operating at 10° C. The mobile phase used for the chromatographic separation was composed of acetonitrile/water containing 0.1% formic acid and was run at a flow rate of 0.5 mL/minute for 4.5 minutes using gradient elution. The column effluent was monitored using TSQ Vantage triple-quadrupole mass spectrometric detector, equipped with an electrospray probe set in the positive ionization mode. Samples were introduced into the ionization source through a heated nebulized probe (350° C.).
(§3) For quantification of compound remaining, disappearance of prodrugs was measured from ratio of peak areas of analyte to IS. Percentage remaining was calculated in the following manner: […]

[2] = Metabolic stability in monkey plasma; format: in vitro ADME; conditions: 10 μM, 37° C.
Procedure: as §1, §2, §3

[3] = In vivo pharmacokinetics in mice, peroral, bioanalysis method 1 (total prodrug exposure); conditions: mice, oral dosing
Method in brief: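 Mice dosed orally; plasma sampled by cardiac puncture 0–4 h (n=3 per time) or at 30 min only. Total prodrug measured after methanol extraction and n-butanol/3N HCl derivatization by UPLC-MS/MS. Non-compartmental PK: observed Cmax/Tmax, AUC by log-linear trapezoidal rule, t1/2=0.693/ke.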

[4] = In vivo pharmacokinetics in beagle dogs, p.o.; conditions: 10 mg/kg (equiv 2-PMPA), N=1, single dose
Procedure: (by mouth). Blood samples were collected from the jugular vein (˜1 mL) via direct venipuncture, placed into potassium oxalate with sodium fluoride tubes, and maintained on wet ice until processed. Blood samples were centrifuged at a temperature of 4° C., at 3000×g, for 5 minutes. Blood samples were maintained chilled throughout processing. Plasma was collected in tubes and flash frozen. Samples were stored in a freezer set to maintain −60° C. to −80 OC until further analysis. […] The tissues were stored in −20° C. for 1 h and then homogenized. The calibration curve for the tissues was developed using naïve mouse brains from untreated animals as a matrix. For sciatic nerve, the nerves were weighed and homogenized in 50 μL methanol and the calibration curve was developed using naïve sciatic nerves from untreated animals as a matrix. The samples were vortexed and centrifuged. […] Supernatant was dried under a gentle stream of nitrogen at 45° C. and the residue reconstituted with 75 μL of acetonitrile and vortexed. 25 μL of derivatizing agent N-tert-Butyldimethysilyl-N-methyltrifluoro-acetamide (MTBSTFA) was added to microcentrifuge tubes, vortexed, and heated at ˜60 OC for 40 min. At the end of 40 min, the derivatized samples ˜75 μL were transferred to a 250 μL polypropylene vials and were analyzed via LC/MS/MS. […]

CC(C)OC(=O)OCOC(=O)C(CCC(=O)O)CP(=O)(OCOC(=O)OC(C)C)OCOC(=O)OC(C)C (centres unmarked) [Compound 10]
Percentage remaining ([1]; 0 min): 100%
Percentage remaining ([1]; 30 min): 1%
Percentage remaining ([1]; 60 min): 0%
Percentage remaining ([2]; 0 min): 100%
Percentage remaining ([2]; 30 min): 50%
Percentage remaining ([2]; 60 min): 11%
permeability in vivo [3]: highest permeability
Cmax [4]: high Cmax
